In publication PMC11203957, “Naphthoquinone-Quinolone Hybrids with Antitumor Effects on Breast Cancer Cell Lines—From the Synthesis to 3D-Cell Culture Effects” (International Journal of Molecular Sciences, 2024):

Tests used:
MCF-7 [1] = experiment: MTT cell viability assay, MCF-7 (2D culture); type: cell-based, human; conditions: for IC50: Homo sapiens, MCF7, MTT, 24 h treatment, 2D culture, read-out: IC50 ± SEM MCF-7; for SI IC50 MCF10A/IC50 MCF-7: selectivity index
Description: (§1) Our first approach to assessing the anticancer activity of the novel 1,4-naphthoquinone/4-quinolone conjugates 11a–f on breast cancer cells involved comparing their effects in the MTT cell viability assay to determine the half-maximal inhibitory concentration (IC50) in the 2D cell culture model. Doxorubicin and 1,4-naphthoquinone were used as controls. Concentration-response curves were obtained with the conjugates at concentrations ranging from 0 to 200 µM. […] This observation aligns with the structural characteristics of this derivative, which features the largest alkyl substituent at position R^1.
(§2) The IC50 values were calculated using GraphPad Prism v. 8.0.1, and the selectivity index was estimated as the ratio between the IC50 value of MCF10A/IC50 value of MDA-MB-231 or MCF-7 [33], for each compound.

MDA-MB-231 = experiment: MTT cell viability assay, MDA-MB-231 (2D culture); type: cell-based, human; conditions: for IC50: Homo sapiens, MDA-MB-231, MTT, 24 h treatment, 2D culture, read-out: IC50 ± SEM MDA-MB-231; for SI IC50 MCF10A/ IC50 MDA-MB-231: selectivity index
Description: as §1, §2

MCF-7 cells [2] = experiment: Annexin V/PI apoptosis assay, MCF-7; type: cell-based, human; conditions: 50 µM
Description: (§3) We investigated apoptosis induction through the annexin V/PI protocol, as described in Section 3. Doxorubicin, 1,4-naphthoquinone, and cisplatin were used as controls. […] For MDA-MB-231 cells (Figure 5B), the effects observed were more prominent at the concentrations tested.
(§4) For the apoptosis assay, the manufacturer’s instructions were followed (Dead Cell Apoptosis Kit with Annexin V for Flow Cytometry, Thermo Fisher Scientific, MA, USA). The cells were analyzed in a Countess II FL cell counter (Thermo Fisher Scientific, Waltham, MA, USA).
(§5) Figure 5 Naphthoquinone-quinolone hybrids induce apoptosis in MCF-7 (A) and MDA-MB-231 (B) cells at different levels.

MCF-7 [3] = experiment: Clonogenic assay, MCF-7; type: cell-based, human; conditions: 25 µM, 24 h treatment, about 14 days growth
Source text: (§6) The clonogenic assay is an effective tool for investigating individual cells’ ability to form colonies. Tumor cells with the ability to generate an expanding family of descendants are clonogenic. Therefore, a clonogenic assay is a simple method to verify one of the important characteristics of cancer cells, which is the ability to detach from the site of origin and to form metastases in other locations. […] For instance, 90–99% of the tumor cells in FaDU tumors, a type of human squamous cell carcinoma observed in nude mice, are non-clonogenic. To achieve the main goal of cancer treatment, which is tumor eradication, it is necessary to inactivate all clonogenic cells through either cell killing or the induction of a permanent state of dormancy, thereby eliminating their clonogenic capacity. The assessment of the potential of a drug to achieve a curative outcome, i.e., effectively neutralizing clonogenic tumor cells, requires the utilization of experimental endpoints that accurately reflect the response of clonogenic cells. Clonogenic endpoints hold particular significance when novel anticancer agents are incorporated into curative therapeutic regimens, such as in combination with radiotherapy or chemotherapy. Thus, clonogenic assays were conducted for compounds 11a–f and 1,4-naphthoquinone.
(§7) Figure 6 The inhibition of colony formation by compounds 11a–f using MCF-7 (A,C) and MDA-MB-231 (B,D) cell lines. Cells were treated with derivatives 11a–f at 25 µM for 24 h. Subsequently, 400 cells were plated on 6-well plates for approximately 14 days. Then, cells were stained with crystal violet dye to visualize the colonies formed.

MDA-MB-231 cells [4] = experiment: Clonogenic assay, MDA-MB-231; type: cell-based, human; conditions: 25 µM, 24 h treatment, about 14 days growth
Source text: as §6, §7

MCF-7 cells [5] = experiment: Reversibility assay (MTT viability), MCF-7; type: cell-based, human; conditions: 25 µM; 24 h, 24 + 24 h, 48 h
Description: (§8) Our next issue concerned the reversibility of the effects: whether they persisted through a longer time of treatment, or if they ceased after the removal of the treatments. To investigate this, we used each compound at 25 µM and treated the MCF-7 and MDA-MB-231 cells for 24 h and 48 h. The 48-h treatment group was further subdivided into two different categories: the first was treated for 24 h, after which the culture medium was replaced with fresh medium without the compound, and then incubated for an additional 24-h period (24 + 24 h). In the second category, cells were continuously exposed to the compound for the entire 48-h duration, without any handling during this period. Cell viability was assessed as the evaluation parameter. The results are shown in Figure 7A (MCF-7) and Figure 7B (MDA-MB-231). […] In MCF-7 cells, the effect observed is similar, with a lower intensity of apoptosis induction.
(§9) Figure 7 Reversibility assay: investigating the effects of treatment durability on cell viability of (A) MCF-7 cells and (B) MDA-MB-231 cells. Cells were treated in three different manners: (1) for 24 h, continuously; (2) for 24 h, followed by removal of the treatment and addition of fresh medium, then further cultivation for 24 h; and (3) for a total period of 48 h. Cell viability was measured using the MTT assay. * p < 0.05, Student’s t-test, n = 3.

MDA-MB-231 cells [6] = experiment: Reversibility assay (MTT viability), MDA-MB-231; type: cell-based, human; conditions: 25 µM; 24 h, 24 + 24 h, 48 h
Description: as §8, §9

MCF-7 spheroids = experiment: 3D-cell culture (spheroids), morphology and acid phosphatase viability, MCF-7; type: cell-based, human; conditions: 25 µM, 48 h
Source text: 3D-cell cultures display features that resemble in vivo tumors: due to their tridimensional structure, cells are not provided with the same amounts of oxygen and nutrients in the center as on the surface, resulting in a gradient that leads to the formation of a necrotic core, similar to the in vivo tumor environment. In the 3D-cell culture model used here, spheroids are formed due to low interaction with the microplate bottom, promoted by its coating with agarose, and strong cell-to-cell interactions in MCF-7 cells, generating a finely compact and homogeneous spheroid. For MDA-MB-231 cells, the addition of collagen I is an extra stimulus necessary for spheroid stabilization. Spheroids were prepared and grown for 48 h and then treated with the compounds at 25 µM. After 48 h, morphological changes were observed, and their viabilities were measured as described in Section 3. The exposure to the compounds for 48 h promoted visible changes in the morphologies of spheroids for both cell lines when compared to the controls (Figure 8). […] While it is more complicated to imply changes in the proliferative (surface) region of the MDA-MB-231 spheroids (Figure 8B), they are observed together with morphological changes after treatment, making them appear more crumbly and lose their round shape. These findings are in line with the viability test, which detected a reduction in the viabilities for all of them, which is significant compared to the control (p < 0.05), except for 11a in MDA-MB-231 spheroids (Figure 8C,D). We should also highlight that the concentrations necessary for an effect on spheroids are expected to be higher when compared to 2D-cell culture models. Here, we observed changes using 25 µM of each compound, as performed in the other experiments.
The procedure was performed as described by Gong et al., with a few modifications. A total of 5000 cells per well were plated on 96-well plates with bottoms previously covered with 50 µL of a 1% agarose solution. The plates were then centrifuged at 300× g for 10 min. For MDA-MB-231 cells, collagen I from rat tail (Gibco) was added to a 3 µg/mL final concentration in the cell suspension. […] The cell spheroids/aggregates were treated with fresh medium added to the compounds and their viability was evaluated after 48 h. Spheroids were photographed with an inverted microscope Bel INV-100 (Bel Engineering, Monza, Italy) equipped with a digital camera.
To measure spheroids viability, this viability assay was performed following Friedrich et al.. The medium was removed from wells and spheroids were washed with PBS. Then, 100 µL of a solution containing 2 mg/mL p-nitrophenyl phosphate (PNPP), 0.1 M citric acid, and 0.1% (v/v) Triton X, pH 5.0 were added. […]

MCF10A = experiment: MTT cell viability assay, non-tumor MCF10A; conditions: Homo sapiens, MCF-10A, 24 h, read-out: IC50 ± SEM MCF10A
[7] = test system: gastric cancer cells ACP03; parameters: method as in PMID 24858098; conditions: cited from earlier work
topoisomerase II = test system: topoisomerase II; parameters: method as in PMID 24858098; conditions: in vitro and in silico studies; cited from earlier work
[8] = test system: cervix adenocarcinoma (HeLa); parameters: method as in PMID 22406451; conditions: cited from earlier work
[9] = test system: hepatocellular carcinoma (BEL7402); parameters: method as in PMID 22406451; conditions: cited from earlier work
MDA-MB-231 cells [10] = experiment: Annexin V/PI apoptosis assay, MDA-MB-231; type: cell-based, human; conditions: 50 µM
Description: as §3, §4, §5

O=C1C=CC(=O)c2ccccc21 [1,4-Naphthoquinone, 1,4-naphthoquinone, reference compound]
IC50 (MCF-7 [1]): 29.5 ± 1 µM
SI IC50 MCF10A/IC50 MCF-7 (MCF-7 [1]): 0.30 ± 0.13
IC50 (MDA-MB-231): 19.3 ± 1.1 µM
SI IC50 MCF10A/ IC50 MDA-MB-231 (MDA-MB-231): 0.46 ± 0.14
early apoptosis induction (annexin V/PI), MCF-7 (MCF-7 cells [2]): comparable
colony formation, MCF-7 (MCF-7 [3]): Significant reductions in colony formation
colony formation, MDA-MB-231 (MDA-MB-231 cells [4]): Significant reductions in colony formation
duration and reversibility of the effect on cell viability, MCF-7 (MCF-7 cells [5]): irreversible effect
duration and reversibility of the effect on cell viability, MDA-MB-231 (MDA-MB-231 cells [6]): irreversible effect
spheroid morphology, MCF-7 (MCF-7 spheroids): changes in the morphology
IC50 (MCF10A): 8.78 ± 1.1 µM

Cc1ccc(NC(=O)c2c[nH]c3ccc(Cl)cc3c2=O)cc1 [Compound 2a]
IC50 [7]: 1.92 µM
topoisomerase II activity inhibition (topoisomerase II): able to inhibit topoisomerase II activity

O=C(Nc1cc(Cl)ccc1Cl)c1c[nH]c2ccc(Cl)cc2c1=O [Compound 2b]
IC50 [7]: 5.18 µM
topoisomerase II activity inhibition (topoisomerase II): able to inhibit topoisomerase II activity

CCCCCCCCC/C=C\CCCCc1cc(=O)c2ccccc2n1C [Compound 3]
IC50 [8]: 18.5 ± 1.2 µM
IC50 [9]: 15.8 ± 1.4 µM

CCOC(=O)c1cn(Cc2ccccc2)c2ccc(C3=CC(=O)c4ccccc4C3=O)cc2c1=O [Compound 11b, Ethyl 1-benzyl-6-(1,4-dioxo-1,4-dihydronaphthalen-2-yl)-4-oxo-1,4-dihydroquinoline-3-carboxylate]
IC50 (MCF-7 [1]): 19.4 ± 1.1 µM
SI IC50 MCF10A/IC50 MCF-7 (MCF-7 [1]): 0.55 ± 0.13
IC50 (MDA-MB-231): 15.1 ± 1 µM
SI IC50 MCF10A/ IC50 MDA-MB-231 (MDA-MB-231): 0.71 ± 0.14
early apoptosis induction (annexin V/PI), MCF-7 (MCF-7 cells [2]): comparable
IC50 (MCF10A): 10.7 ± 1.3 µM

CCCCCn1cc(C(=O)OCC)c(=O)c2cc(C3=CC(=O)c4ccccc4C3=O)ccc21 [Compound 11c, Ethyl 6-(1,4-dioxo-1,4-dihydronaphthalen-2-yl)-4-oxo-1-pentyl-1,4-dihydroquinoline-3-carboxylate]
IC50 (MCF-7 [1]): 32.8 ± 1.1 µM
SI IC50 MCF10A/IC50 MCF-7 (MCF-7 [1]): 0.31 ± 0.11
IC50 (MDA-MB-231): 16.4 ± 1.1 µM
SI IC50 MCF10A/ IC50 MDA-MB-231 (MDA-MB-231): 0.62 ± 0.12
apoptosis profile (annexin V/PI), MDA-MB-231 (MDA-MB-231 cells [10]): induces apoptosis
colony formation, MCF-7 (MCF-7 [3]): most effective
duration and reversibility of the effect on cell viability, MCF-7 (MCF-7 cells [5]): short effect
duration and reversibility of the effect on cell viability, MDA-MB-231 (MDA-MB-231 cells [6]): not capable of sustaining the antitumor effect after 48 h of treatment
IC50 (MCF10A): 10.2 ± 1.1 µM

CCn1cc(C(=O)O)c(=O)c2cc(C3=CC(=O)c4ccccc4C3=O)ccc21 [Compound 11d, 6-(1,4-dioxo-1,4-dihydronaphthalen-2-yl)-1-ethyl-4-oxo-1,4-dihydroquinoline-3-carboxylic acid]
IC50 (MCF-7 [1]): 25.1 ± 1.2 µM
SI IC50 MCF10A/IC50 MCF-7 (MCF-7 [1]): 0.85 ± 0.07
IC50 (MDA-MB-231): 20.1 ± 1.1 µM
SI IC50 MCF10A/ IC50 MDA-MB-231 (MDA-MB-231): 1.07 ± 0.08
colony formation, MDA-MB-231 (MDA-MB-231 cells [4]): most effective
spheroid morphology, MCF-7 (MCF-7 spheroids): changes in the morphology
melting point: > 300 °C
IC50 (MCF10A): 21.5 ± 1.2 µM

CCCCCn1cc(C(=O)O)c(=O)c2cc(C3=CC(=O)c4ccccc4C3=O)ccc21 [Compound 11f, 6-(1,4-dioxo-1,4-dihydronaphthalen-2-yl)-4-oxo-1-pentyl-1,4-dihydroquinoline-3-carboxylic acid]
IC50 (MCF-7 [1]): 65.7 ± 1.1 µM
SI IC50 MCF10A/IC50 MCF-7 (MCF-7 [1]): 0.11 ± 0.16
IC50 (MDA-MB-231): 24.1 ± 1.1 µM
SI IC50 MCF10A/ IC50 MDA-MB-231 (MDA-MB-231): 0.29 ± 0.16
colony formation, MCF-7 (MCF-7 [3]): most effective
melting point: > 300 °C
IC50 (MCF10A): 6.92 ± 1.1 µM

N.N.[Cl][Pt][Cl] [cisplatin]
early apoptosis induction (annexin V/PI), MCF-7 (MCF-7 cells [2]): comparable
apoptosis profile (annexin V/PI), MDA-MB-231 (MDA-MB-231 cells [10]): lower effect
